{"source": "patent US11746116B2", "about": "“Antibiotic resistance breakers” (KING'S COLLEGE LONDON, priority 2017, dated 2023)", "system": "extended bacterial panel", "test": "MIC against an extended bacterial panel (Table 15)", "format": "cell-based", "data": [{"molecule": "Cc1cc(C)nc(N[C@@H]2CCN(c3c(F)cc4c(=O)c(C(=O)O)cn5c4c3OC[C@@H]5C)C2)n1", "note": "[KSN-BL7, (S)-10-((R)-3-((4,6-dimethylpyrimidin-2-yl)amino)pyrrolidin-1-yl)-9-fluoro-3-methyl-7-oxo-2,3-dihydro-7H-[1,4]oxazino[2,3,4-ij]quinoline-6-carboxylic acid]", "values": [{"measurement": "MIC", "setting": "Enterococcus faecalis, ATCC29212, Enterococcus faecalis ATCC 29212", "result": 0.25, "unit": "µg/mL"}, {"measurement": "MIC", "setting": "Enterococcus faecalis, ATCC51299, Enterococcus faecalis ATCC 51299, VanB", "result": 0.125, "unit": "µg/mL"}, {"measurement": "MIC", "setting": "Enterococcus faecalis, ATCC51575, Enterococcus faecalis ATCC 51575, VanB", "result": 0.25, "unit": "µg/mL"}, {"measurement": "MIC", "setting": "Enterococcus faecalis, ATCC700802, Enterococcus faecalis ATCC 700802, VanB", "result": 0.125, "unit": "µg/mL"}, {"measurement": "MIC", "setting": "Enterococcus faecalis, CCUG47775, Enterococcus faecalis CCUG 47775, Van A", "result": 0.5, "unit": "µg/mL"}, {"measurement": "MIC", "setting": "Enterococcus faecium, CCUG59167, Enterococcus faecium TUH44-29, CCUG 59167, Van A", "result": 1, "unit": "µg/mL"}, {"measurement": "MIC", "setting": "Enterococcus gallinarum, ATCC 49608 / GALLINARUM, Enterococcus gallinarum ATCC 49608, VanC", "result": 0.25, "unit": "µg/mL"}, {"measurement": "MIC", "setting": "Staphylococcus aureus, ATCC10390, Staphylococcus aureus ATCC 10390", "result": "≤ 0.0312", "unit": "µg/mL"}, {"measurement": "MIC", "setting": "Staphylococcus aureus, ATCC 13709 / MRSA, Staphylococcus aureus ATCC 13709, MRSA", "result": "≤ 0.0312", "unit": "µg/mL"}, {"measurement": "MIC", "setting": "Staphylococcus aureus, ATCC19636, Staphylococcus aureus Smith, ATCC 19636", "result": "≤ 0.0312", "unit": "µg/mL"}, {"measurement": "MIC", "setting": "Staphylococcus aureus, ATCC27660, Staphylococcus aureus ATCC 27660", "result": "≤ 0.0312", "unit": "µg/mL"}, {"measurement": "MIC", "setting": "Staphylococcus aureus, ATCC29213, Staphylococcus aureus ATCC 29213", "result": "≤ 0.0312", "unit": "µg/mL"}, {"measurement": "MIC", "setting": "Staphylococcus aureus, ATCC29213, Staphylococcus aureus ATCC 29213 with 50% human serum", "result": 1, "unit": "µg/mL"}, {"measurement": "MIC", "setting": "Staphylococcus aureus, ATCC 33591 / MRSA, Staphylococcus aureus ATCC 33591, MRSA", "result": "≤ 0.0312", "unit": "µg/mL"}, {"measurement": "MIC", "setting": "Staphylococcus aureus, ATCC 33592 / MRSA, Staphylococcus aureus ATCC 33592, MRSA", "result": "≤ 0.0312", "unit": "µg/mL"}, {"measurement": "MIC", "setting": "Staphylococcus aureus, ATCC33594, Staphylococcus aureus ATCC 33594", "result": "≤ 0.0312", "unit": "µg/mL"}, {"measurement": "MIC", "setting": "Staphylococcus aureus, ATCC49230, Staphylococcus aureus ATCC 49230", "result": "≤ 0.0312", "unit": "µg/mL"}, {"measurement": "MIC", "setting": "Staphylococcus aureus, ATCC 700699 / MRSA / VISA, Staphylococcus aureus Mu50, ATCC 700699, MRSA/VISA", "result": 2, "unit": "µg/mL"}, {"measurement": "MIC", "setting": "Staphylococcus aureus, BAA-1556 / MRSA / USA300, Staphylococcus aureus FPR3757, BAA-1556, USA300 MRSA", "result": 0.5, "unit": "µg/mL"}, {"measurement": "MIC", "setting": "Staphylococcus aureus, BAA-1707 / MRSA / USA400, Staphylococcus aureus MW2, BAA-1707, USA400 MRSA", "result": "≤ 0.0312", "unit": "µg/mL"}, {"measurement": "MIC", "setting": "Staphylococcus aureus, BAA-1717 / MRSA / USA300, Staphylococcus aureus TCH1516, BAA-1717, USA300 MRSA", "result": "≤ 0.0312", "unit": "µg/mL"}, {"measurement": "MIC", "setting": "Staphylococcus aureus, MRSA / NRS 3 / VISA, Staphylococcus aureus NRS3, MRSA/VISA", "result": 0.5, "unit": "µg/mL"}, {"measurement": "MIC", "setting": "Staphylococcus aureus, MRSA / NRS 17 / VISA, Staphylococcus aureus NRS17, MRSA/VISA", "result": 1, "unit": "µg/mL"}, {"measurement": "MIC", "setting": "Staphylococcus aureus, MRSA / NRS 22 / USA600 / VISA, Staphylococcus aureus NRS22, USA600 MRSA/VISA", "result": 4, "unit": "µg/mL"}, {"measurement": "MIC", "setting": "Staphylococcus aureus, MRSA / NRS 56 / VISA, Staphylococcus aureus NRS56, MRSA/VISA", "result": 1, "unit": "µg/mL"}, {"measurement": "MIC", "setting": "Staphylococcus aureus, MRSA / NRS 71, Staphylococcus aureus NRS71, MRSA", "result": 1, "unit": "µg/mL"}, {"measurement": "MIC", "setting": "Staphylococcus aureus, MRSA / NRS 100, Staphylococcus aureus COL, NRS100, MRSA", "result": "≤ 0.0312", "unit": "µg/mL"}, {"measurement": "MIC", "setting": "Staphylococcus aureus, MRSA / NRS 119, Staphylococcus aureus NRS119, MRSA LZD-NS", "result": 1, "unit": "µg/mL"}, {"measurement": "MIC", "setting": "Staphylococcus aureus, MRSA / NRS 123 / USA400, Staphylococcus aureus NRS123, USA400 MRSA", "result": "≤ 0.0312", "unit": "µg/mL"}, {"measurement": "MIC", "setting": "Staphylococcus aureus, MRSA / NRS 127, Staphylococcus aureus NRS127, MRSA LZD-NS", "result": 4, "unit": "µg/mL"}, {"measurement": "MIC", "setting": "Staphylococcus aureus, MRSA / NRS 269, Staphylococcus aureus NRS269, MRSA TGC-NS", "result": 2, "unit": "µg/mL"}, {"measurement": "MIC", "setting": "Staphylococcus aureus, MRSA / NRS 271, Staphylococcus aureus E-MRSA 15, NRS271, MRSA LZD-NS", "result": 0.5, "unit": "µg/mL"}, {"measurement": "MIC", "setting": "Staphylococcus aureus, MRSA / NRS 382 / USA100, Staphylococcus aureus NRS382, USA100 MRSA", "result": 0.5, "unit": "µg/mL"}, {"measurement": "MIC", "setting": "Staphylococcus aureus, MRSA / NRS 383 / USA200, Staphylococcus aureus NRS383, USA200 MRSA TIG-NS", "result": 1, "unit": "µg/mL"}, {"measurement": "MIC", "setting": "Staphylococcus aureus, MRSA / NRS 384 / USA300, Staphylococcus aureus NRS384, USA300 MRSA", "result": "≤ 0.0312", "unit": "µg/mL"}, {"measurement": "MIC", "setting": "Staphylococcus aureus, MRSA / NRS 385 / USA500, Staphylococcus aureus NRS385, USA500 MRSA", "result": 0.5, "unit": "µg/mL"}, {"measurement": "MIC", "setting": "Staphylococcus aureus, MRSA / NRS 386 / USA700, Staphylococcus aureus NRS386, USA700 MRSA", "result": 0.25, "unit": "µg/mL"}, {"measurement": "MIC", "setting": "Staphylococcus aureus, MRSA / NRS 387 / USA800, Staphylococcus aureus NRS387, USA800 MRSA", "result": "≤ 0.0312", "unit": "µg/mL"}, {"measurement": "MIC", "setting": "Staphylococcus aureus, MRSA / NRS 402 / VISA, Staphylococcus aureus NRS402, MRSA/VISA DAP-NS", "result": 1, "unit": "µg/mL"}, {"measurement": "MIC", "setting": "Staphylococcus aureus, MRSA / NRS 483, Staphylococcus aureus NRS483, USA1000 MRSA", "result": "≤ 0.0312", "unit": "µg/mL"}, {"measurement": "MIC", "setting": "Staphylococcus aureus, MRSA / NRS 484, Staphylococcus aureus NRS484, USA1100 MRSA", "result": "≤ 0.0312", "unit": "µg/mL"}, {"measurement": "MIC", "setting": "Staphylococcus aureus, MRSA / VISA, Staphylococcus aureus FDA-CDC AR-BANK# 0215", "result": 16, "unit": "µg/mL"}, {"measurement": "MIC", "setting": "Staphylococcus aureus, MRSA / VISA, Staphylococcus aureus FDA-CDC AR-BANK# 0216", "result": 0.5, "unit": "µg/mL"}, {"measurement": "MIC", "setting": "Staphylococcus aureus, MRSA / VISA, Staphylococcus aureus FDA-CDC AR-BANK# 0217", "result": 1, "unit": "µg/mL"}, {"measurement": "MIC", "setting": "Staphylococcus aureus, MRSA / VISA, Staphylococcus aureus FDA-CDC AR-BANK# 0218, MRSA/VISA Mupirocin-R", "result": 1, "unit": "µg/mL"}, {"measurement": "MIC", "setting": "Staphylococcus aureus, MRSA / VISA, Staphylococcus aureus FDA-CDC AR-BANK# 0219", "result": 4, "unit": "µg/mL"}, {"measurement": "MIC", "setting": "Staphylococcus aureus, MRSA / VISA, Staphylococcus aureus FDA-CDC AR-BANK# 0220", "result": 1, "unit": "µg/mL"}, {"measurement": "MIC", "setting": "Staphylococcus aureus, MRSA / VISA, Staphylococcus aureus FDA-CDC AR-BANK# 0221", "result": 0.5, "unit": "µg/mL"}]}]}
